In patent US6800794B1, “Nucleic acid comprising the sequence of a promoter unductible by stress and a gene sequence coding for a stilbene synthase” (Champagne Moet & Chandon, priority 1998, dated 2004):
pIC50: −log10 of the molar value.

Columns and labels:
[1] = system: Botrytis cinerea mycelium, strain 916T; test: Inhibition of the growth of Botrytis cinerea mycelium on malt medium containing resveratrol; assay type: cell-based
Method: FIG. 9: Inhibition of the growth of Botrytis cinerea mycelium, strain 916T, after 7 days at 20° C.
The mycelium is cultured on a malt/glucose medium containing different concentrations of resveratrol.
A study was carried out of the action of the molecule on the growth of mycelial hyphae of Botrytis cinera in culture on a malt/agar medium containing a resveratrol dilution range of from 10^−1 M to 3.7.10^−3 M, with the hyphae being incubated at ambient temperature for 7 days. […] However, this inhibition […] progressively after 7 days of culture under these conditions, which are otherwise very favourable to the growth of the fungus. After 20 days, the fungus finally infects the whole of the culture surface.

[2] = system: zoospores of Plasmopora viticola; conditions: according to DAÏ (1994); cited from earlier work
Botrytis cinerea conidia = conditions: according to PONT and PEZET (1990); cited from earlier work

pIC50 ([1]; Botrytis cinerea, 168 h, read-out: inhibitory effect on growth of mycelial hyphae (IC50), malt/agar medium, 7 days, ambient temperature (FIG. 9: 20° C.)): 3.30
SMILES: Oc1ccc(C=Cc2cc(O)cc(O)c2)cc1 [resveratrol]
inhibitory activity on the growth of the mycelium ([1]; at 37 μmol.^−1, 7 days): very slight inhibitory activity
concentrations giving an exponential decrease in the mean growth diameter of the fungus ([1]; malt/agar medium, 7 days): greater than 125 μmol.1^−1
effect on the development of the zoospores [2]: inhibitory effect
blocking of germination of conidia (Botrytis cinerea conidia): does not block
